Legend:
Format in all cases: in vivo
[1] = tested on: barnyardgrass (Echinochloa crus-galli); test: Test A postemergence, barnyardgrass; settings: 10 days
Excerpt: (§1) Seeds of plant species selected from barnyardgrass (Echinochloa crus-galli), blackgrass (Alopecurus myosuroides), corn (Zea mays), foxtail, giant (giant foxtail, Setaria faberi), foxtail, green (green foxtail, Setaria viridis), goosegrass (Eleusine indica), kochia (Bassia scoparia), oat, wild (wild oat, Avena fatua), palmer amaranth (pigweed, palmer, Amaranthus palmeri), redroot pigweed (Amaranthus retroflexus), ragweed (common ragweed, Ambrosia artemisiifolia), ryegrass, Italian (Italian ryegrass, Lolium multiflorum), and soybean (Glycine max) were planted into a blend of loam soil and sand and treated preemergence with a directed soil spray using test chemicals formulated in a non-phytotoxic solvent mixture which included a surfactant.
(§2) At the same time, plants selected from these crop and weed species and also wheat (Triticum aestivum), galium (catchweed bedstraw, Galium aparine) and horseweed (Erigeron canadensis) were planted in pots containing the same blend of loam soil and sand and treated with postemergence applications of test chemicals formulated in the same manner. Plants ranged in height from 2 to 10 cm and were in the one- to two-leaf stage for the postemergence treatment. Treated plants and untreated controls were maintained in a greenhouse for 10 days, after which time all treated plants were compared to untreated controls and visually evaluated for injury. Plant response ratings, summarized in Table A, are based on a 0 to 100 scale where 0 is no effect and 100 is complete control. A dash (-) response means no test result.

[2] = tested on: redroot pigweed (Amaranthus retroflexus); test: Test A postemergence, redroot pigweed; settings: 10 days
Excerpt: as §1, §2

[3] = tested on: galium (catchweed bedstraw, Galium aparine); test: Test A postemergence, galium; settings: 10 days
Excerpt: as §1, §2

[4] = tested on: barnyardgrass (Echinochloa crus-galli); test: Test A preemergence, barnyardgrass; settings: 10 days
Excerpt: as §1, §2

[5] = tested on: ragweed (common ragweed, Ambrosia artemisiifolia); test: Test A postemergence, ragweed; settings: 10 days
Excerpt: as §1, §2

[6] = tested on: ragweed (common ragweed, Ambrosia artemisiifolia); test: Test A preemergence, ragweed; settings: 0 to 100 scale, 10 days
Excerpt: as §1, §2

[7] = tested on: foxtail, giant (giant foxtail, Setaria faberi); test: Test A postemergence, foxtail, giant; settings: 10 days
Excerpt: as §1, §2

[8] = tested on: foxtail, giant (giant foxtail, Setaria faberi); test: Test A preemergence, foxtail, giant; settings: 0 to 100 scale, 10 days
Excerpt: as §1, §2

[9] = tested on: ryegrass, Italian (Italian ryegrass, Lolium multiflorum); test: Test A postemergence, ryegrass, Italian; settings: 10 days
Excerpt: as §1, §2

[10] = tested on: redroot pigweed (Amaranthus retroflexus); test: Test A preemergence, redroot pigweed; settings: 0 to 100 scale, 10 days
Excerpt: as §1, §2

rice (Oryza sativa) = test: Test B flooded paddy test, rice; settings: 250 g ai/ha, Flood; visually evaluated after 10 to 14 days
Protocol: (§3) Plant species in the flooded paddy test selected from barnyardgrass (Echinochloa crus-galli), ducksalad (Heteranthera limosa), rice (Oryza sativa), and sedge, umbrella (small-flower umbrella sedge, Cyperus difformis) were grown to the 2-leaf stage for testing. At time of treatment, test pots were flooded to 3 cm above the soil surface, treated by application of test compounds directly to the paddy water, and then maintained at that water depth for the duration of the test. Treated plants and controls were maintained in a greenhouse for 10 to 14 days, after which time all species were compared to controls and visually evaluated. Plant response ratings, summarized in Table B, are based on a scale of 0 to 100 where 0 is no effect and 100 is complete control. A dash (-) response means no test result.

corn (Zea mays) = test: Test A postemergence, corn; settings: 10 days
Excerpt: as §1, §2

[11] = tested on: ducksalad (Heteranthera limosa); test: Test B flooded paddy test, ducksalad; settings: 250 g ai/ha, Flood; visually evaluated after 10 to 14 days
Protocol: as §3

[12] = tested on: blackgrass (Alopecurus myosuroides); test: Test A postemergence, blackgrass; settings: 10 days
Excerpt: as §1, §2

[13] = tested on: barnyardgrass (Echinochloa crus-galli); test: Test B flooded paddy test, barnyardgrass; settings: 250 g ai/ha, Flood; visually evaluated after 10 to 14 days
Protocol: as §3

[14] = tested on: ryegrass, Italian (Italian ryegrass, Lolium multiflorum); test: Test A preemergence, ryegrass, Italian; settings: 0 to 100 scale, 10 days
Excerpt: as §1, §2

kochia (Bassia scoparia) [15] = test: Test A postemergence, kochia; settings: 10 days
Excerpt: as §1, §2

[16] = tested on: wheat (Triticum aestivum); test: Test A postemergence, wheat; settings: 10 days
Excerpt: as §1, §2

[17] = tested on: sedge, umbrella (small-flower umbrella sedge, Cyperus difformis); test: Test B flooded paddy test, sedge, umbrella; settings: 250 g ai/ha, Flood; visually evaluated after 10 to 14 days
Protocol: as §3

kochia (Bassia scoparia) [18] = test: Test A preemergence, kochia; settings: 0 to 100 scale, 10 days
Excerpt: as §1, §2

[19] = 31 g ai/ha, postemergence, 0 to 100 scale (0 no effect, 100 complete control)
[20] = Postemergence, 125 g ai/ha, 0 to 100 scale
[21] = 125 g ai/ha, 0 to 100 scale (0 no effect, 100 complete control)
[22] = Postemergence, 31 g ai/ha, 0 to 100 scale

| Compound | Plant response rating, Barnyardgrass [1, 20] | Plant response rating, Pigweed, Redroot [2, 19] | Plant response rating, Pigweed, Redroot [2, 20] | Plant response rating, Galium [3, 19] | Plant response rating, Galium [3, 20] | Plant response rating, Barnyardgrass ([4]; 31 g ai/ha, 0 to 100 scale) | Plant response rating, Barnyardgrass [4, 21] | Plant response rating, Ragweed [5, 19] | Plant response rating, Ragweed [5, 20] | Plant response rating, Ragweed ([6]; 31 g ai/ha) | Plant response rating, Ragweed ([6]; 125 g ai/ha) | Plant response rating, Foxtail, Giant [7, 20] | Plant response rating, Foxtail, Giant ([8]; 31 g ai/ha) | Plant response rating, Foxtail, Giant ([8]; 125 g ai/ha) | Plant response rating, Ryegrass, Italian [9, 19] | Plant response rating, Ryegrass, Italian [9, 20] | Plant response rating, Pigweed, Redroot ([10]; 31 g ai/ha) | Plant response rating, Pigweed, Redroot ([10]; 125 g ai/ha) | Plant response rating, Rice (0 to 100 scale where 0 is no effect and 100 is complete control) (rice (Oryza sativa)) | Plant response rating, Corn (corn (Zea mays); [20]) | also measured |
| --- | --- | --- | --- | --- | --- | --- | --- | --- | --- | --- | --- | --- | --- | --- | --- | --- | --- | --- | --- | --- | --- |
| CC(=O)OCOc1c(Cl)nn(C)c(=O)c1-c1c2cc(C)ccc2cc2ccc(C)cc12 [Compound 23] | 90 | 100 | 100 | 70 | 100 | 30 | 80 | 70 | 100 | 40 | 90 | 50 | 0 | 20 | 0 | 40 | 100 | 100 | 0 | 40 | Plant response rating, Barnyardgrass [1, 19]: 30; Plant response rating, Foxtail, Giant [7, 19]: 0; Plant response rating, Corn (corn (Zea mays); [19]): 0; Plant response rating, Ducksalad (0 to 100 scale where 0 is no effect and 100 is complete control) [11]: 95; Plant response rating, Blackgrass [12, 19]: 40; Plant response rating, Blackgrass [12, 20]: 20; Plant response rating, Barnyardgrass (0 to 100 scale where 0 is no effect and 100 is complete control) [13]: 60; Plant response rating, Ryegrass, Italian ([14]; 31 g ai/ha): 0; Plant response rating, Ryegrass, Italian ([14]; 125 g ai/ha): 0; Plant response rating, Kochia (kochia (Bassia scoparia) [15]; [19]): 20; Plant response rating, Kochia (kochia (Bassia scoparia) [15]; [20]): 80; Plant response rating, Wheat [16, 19]: 0; Plant response rating, Wheat [16, 20]: 0; Plant response rating, Sedge, Umbrella (0 to 100 scale where 0 is no effect and 100 is complete control) [17]: 75; Plant response rating, Kochia (kochia (Bassia scoparia) [18]; 31 g ai/ha): 60; Plant response rating, Kochia (kochia (Bassia scoparia) [18]; 125 g ai/ha): 90 |
| COc1ccc2cc3ccc(F)cc3c(-c3c(OCOC(C)=O)c(C)nn(C)c3=O)c2c1 [Compound 26] | 40 | 100 | 100 | 80 | 100 | 10 | 70 | 90 | 100 | 30 | 30 | 70 | 20 | 90 | 20 | 90 | 100 | 100 | 10 | 10 | Plant response rating, Barnyardgrass [1, 19]: 20; Plant response rating, Foxtail, Giant [7, 19]: 20; Plant response rating, Corn (corn (Zea mays); [19]): 0; Plant response rating, Ducksalad (0 to 100 scale where 0 is no effect and 100 is complete control) [11]: 80; Plant response rating, Blackgrass [12, 19]: 0; Plant response rating, Blackgrass [12, 20]: 10; Plant response rating, Barnyardgrass (0 to 100 scale where 0 is no effect and 100 is complete control) [13]: 60; Plant response rating, Ryegrass, Italian ([14]; 31 g ai/ha): 10; Plant response rating, Ryegrass, Italian ([14]; 125 g ai/ha): 90; Plant response rating, Kochia (kochia (Bassia scoparia) [15]; [19]): 40; Plant response rating, Kochia (kochia (Bassia scoparia) [15]; [20]): 80; Plant response rating, Wheat [16, 19]: 20; Plant response rating, Wheat [16, 20]: 60; Plant response rating, Sedge, Umbrella (0 to 100 scale where 0 is no effect and 100 is complete control) [17]: 85; Plant response rating, Kochia (kochia (Bassia scoparia) [18]; 31 g ai/ha): 20; Plant response rating, Kochia (kochia (Bassia scoparia) [18]; 125 g ai/ha): 90 |
| CC(=O)OCOc1c(C)nn(C)c(=O)c1-c1c2cc(F)ccc2cc2c(C)cc(C)cc12 [Compound 27] | 30 | 100 | 100 | 70 | 100 | 0 | 30 | 90 | 90 | 50 | 100 | 30 | 0 | 70 | 100 | 100 | 100 | 100 | 15 | 10 | Plant response rating, Barnyardgrass [1, 19]: 20; Plant response rating, Foxtail, Giant [7, 19]: 0; Plant response rating, Corn (corn (Zea mays); [19]): 0; Plant response rating, Ducksalad (0 to 100 scale where 0 is no effect and 100 is complete control) [11]: 65; Plant response rating, Blackgrass [12, 19]: 0; Plant response rating, Blackgrass [12, 20]: 0; Plant response rating, Barnyardgrass (0 to 100 scale where 0 is no effect and 100 is complete control) [13]: 0; Plant response rating, Ryegrass, Italian ([14]; 31 g ai/ha): 10; Plant response rating, Ryegrass, Italian ([14]; 125 g ai/ha): 90; Plant response rating, Kochia (kochia (Bassia scoparia) [15]; [19]): 10; Plant response rating, Kochia (kochia (Bassia scoparia) [15]; [20]): 70; Plant response rating, Wheat [16, 19]: 0; Plant response rating, Wheat [16, 20]: 0; Plant response rating, Sedge, Umbrella (0 to 100 scale where 0 is no effect and 100 is complete control) [17]: 65; Plant response rating, Kochia (kochia (Bassia scoparia) [18]; 31 g ai/ha): 0; Plant response rating, Kochia (kochia (Bassia scoparia) [18]; 125 g ai/ha): 80 |
| CC(=O)OCOc1c(C)nn(C)c(=O)c1-c1c2ccccc2c(Cl)c2ccccc12 [Compound 12] | 60 | 100 | 100 | 100 | 100 | 20 | 90 | 90 | 100 | 60 | 80 | 80 | 10 | 80 | 80 | 100 | 100 | 100 | 0 | 10 | Plant response rating, Barnyardgrass [1, 22]: 10; Plant response rating, Foxtail, Giant [7, 22]: 20; Plant response rating, Corn (corn (Zea mays); [22]): 0; Plant response rating, Ducksalad (0 to 100 scale where 0 is no effect and 100 is complete control) [11]: 70; Plant response rating, Blackgrass [12, 22]: 0; Plant response rating, Blackgrass [12, 20]: 30; Plant response rating, Barnyardgrass (0 to 100 scale where 0 is no effect and 100 is complete control) [13]: 0; Plant response rating, Ryegrass, Italian ([14]; 31 g ai/ha): 70; Plant response rating, Ryegrass, Italian ([14]; 125 g ai/ha): 90; Plant response rating, Kochia (kochia (Bassia scoparia) [15]; [19]): 40; Plant response rating, Kochia (kochia (Bassia scoparia) [15]; [20]): 80; Plant response rating, Wheat [16, 19]: 0; Plant response rating, Wheat [16, 20]: 10; Plant response rating, Sedge, Umbrella (0 to 100 scale where 0 is no effect and 100 is complete control) [17]: 85; Plant response rating, Kochia (kochia (Bassia scoparia) [18]; 31 g ai/ha): 0; Plant response rating, Kochia (kochia (Bassia scoparia) [18]; 125 g ai/ha): 100 |

Source: patent US12692238B2, “Substituted pyridazinone herbicides” (FMC CORPORATION, priority 2020, dated 2026)
